Results taken from patent publication US20080226639A1, “Heparin Binding Peptide” (Enkan Pharmaceuticals A/S, priority 2004, published 2008).
Residues, ends and D or L forms follow the SMILES beside them.

B1: Ig 2 module of NCAM: recombinant Ig2 module of NCAM prepared in the yeast P. pastoris expression system (protein)
chain: KLMFKNAPTPQEFKEGEDAVIVCDVVSSLPPTIIWKHKGRDVILKKDVRFIVLSNNYLQIRGIKKTDEGTYRCEGRILARGEINFKDIQVIVNV

Experiments:
[1] = tested on: fibroblasts with or without NCAM expression (mouse fibroblastoid L-cells); assay: Random cell motility of fibroblasts, time-lapse video-recording; type: cell-based; conditions: both NCAM expressing fibroblasts and control fibroblasts (FIG. 5)
Procedure: For evaluation the effect of the peptides on cell motility, confluent cultures of fibroblasts with or without NCAM expression are dislodged with 0.5 mg/ml of trypsin and 0.75 mM EDTA in a modified Puck's saline (Gibco BRL), seeded in six-well tissue culture plates (Nunc) at a density of 4×10^3 cells/cm^2 and grown for 24 h at 37° C. and at 5% CO2.
Random cell motility was evaluated by use of time-lapse video-recording and image analysis as described previously (Walmod, et al. (1998). Cell Motil Cytoskeleton. 40(3), 220-37). […]
Evaluation of cell motility and morphology is performed using the image processing software PRIMA. The positions of individual cells are determined by manual marking of the centers of the nuclei. […] The parameters of mean squared cell speed (Sτ), rate of diffusion (R), and locomotive index (LI) are determined according to Walmod, et al. (2000) (Methods Mol. Biology. 161, 59-83) as described below.
The displacement of a cell is the Euclidean distance between two points corresponding to the initial and final positions of the cell. […] The mean squared cell displacement of a cellular population after a given time (t1) of observation was calculated as […]
where P is the persistence time in direction (23). The mean cell speed, Sτ, was calculated as the ratio of the mean displacement of cells (<dτ>) to the time interval τ. […]

[2] = tested on: primary cerebellar granule neurons (CGNs); assay: Neurite outgrowth in primary culture of single CGNs; type: cell-based, rat; conditions: single CGNs (FIG. 3); for maximal effect on neurite outgrowth: peptide immobilized on tissue culture plastic, coating concentration of 5 μg/ml
Procedure: Primary cerebellar granule neurons (CGNs) are prepared from postnatal day 3-4 rat pups according to Rønn, L. C., Doherty, P., Holm, A., Berezin, V., Bock, E. (2000). J. Neurochem. 75(2):665-71. Dissociated cerebella cells are grown at 37° C. and 5% CO2 in Neurobasal-A medium containing 20 mM Hepes, 100 U/ml penicillin, 100 μg/ml streptomycin, 1% glutamax and supplemented with B27 (all from Gibco BRL). For testing the effect of the peptides, CGNs are seeded in eight-well LabTech tissue chamber slides with a growth surface of Permanox plastic (Nunc) at a density of 10^4 cells/well in Neurobasal-A medium containing 100 U/ml penicillin, 100 μg/ml streptomycin, 1% glutamax and supplemented with B27. When treated with Heparinase III (1 U/ml), the enzyme is added to the culture medium immediately after plating. CGNs are treated with the enzyme for 1 h before addition of different concentrations (1 μg/ml, 5 μg/ml, and 20 μg/ml) of the peptides. After 24 h of culture, cells are fixed with paraformaldehyde, immunostained with primary mouse antibodies against CD90 (Thy-1) (1:200) (Caltag Laboratories, USA) (PC12-E2 cells) or GAP-43 (1:1000) (Chemicon, USA) (CGNs) and secondary Alexa Fluor®488 goat antibody against mouse IgG (1:1000) (Molecular Probes, Netherlands), and the length of neurites is measured by a stereological method as previously described (Ronn, L. C., Ralets, I., Hartz, B. P., Bech, M., Berezin, A., Berezin, V., Møller, A., Bock, E (2000). J Neurosci Methods. 100(1-2), 25-32).

[3] = tested on: rat cerebella granular neurons (CGNs); assay: Neurite outgrowth of CGNs in co-culture with fibroblasts with or without NCAM expression; type: cell-based; conditions: for neurite outgrowth of CGNs grown on fibroblasts without NCAM expression: CGNs on control fibroblasts without NCAM expression; for neurite outgrowth of CGNs grown on fibroblasts without NCAM expression / neurite outgrowth of CGNs grown on fibroblasts expressing NCAM: 24 h co-culture, different peptide concentrations (FIG. 1); for neurite outgrowth of CGNs grown on fibroblasts expressing NCAM: CGNs on monolayers of NCAM expressing fibroblasts
Procedure: Genetically modified fibroblasts (mouse fibroblastoid L-cells) with or without NCAM expression are seeded in eight-well LabTek tissue culture chamber slides (Nunc, Roskilde, Denmark) at a density 7×10^4 of cells/well and maintained at 37° C. and 5% CO2 in DMEM with 10% HS, 100 U/ml penicillin and 100 μg/ml streptomycin. 24 h after plating the medium is removed and CGNs (10^4 cells/well) are seeded on monolayers of fibroblasts with or without NCAM expression in Neurobasal-A medium containing 100 U/ml penicillin, 100 μg/ml streptomycin, 1% glutamax and supplemented with B27, and grown in co-culture for 24 hours, afterwards neurite outgrowth is measured. CGNs are prepared from postnatal day 3-4 rat pups according to Rønn, L. C., Doherty, P., Holm, A., Berezin, V., Bock, E. (2000). J. Neurochem. 75(2):665-71.

[4] = target: T1, recombinant Trk B receptor (Homo sapiens, UniProt Q16620); assay: BIAcore binding analysis to Trk B receptor; conditions: HBP or Ig2 module immobilized on sensor chip CM5, Trk B injected, 25° C., pH 7.4 (FIG. 7)
T1 construct: purchased RD Systems (USA)
Procedure: Recombinant the Ig2 module of NCAM was prepared using in the yeast P. pastoris expression system (Invitrogen, USA) as previously described (Kiselyov et al., Biol. Chem. 272, 10125-10134, 1997). Recombinant Trk B receptor was purchased from RD Systems (USA).
Binding analysis was performed using a BIAcoreX instrument (Biosensor AB) at 25° C. using 10 mM sodium phosphate pH 7.4, 150 mM NaCl as running buffer. The flow-rate was 5 μl/min. Data were analysed by non-linear curve-fitting using the manufacture's software. The HBP or recombinant Ig 2 module of NCAM were immobilized on a sensor chip CM5 using amine coupling kit (Biosensor AB) as follows: 1) the two halves of the chip (designated Fc1 and Fc2) were activated by 20 μl activation solution; 2) the protein was immobilized on Fc1 using 12 μl 20 μg/ml protein in 10 mM sodium phosphate buffer pH 6.0; 3) Fc1 and Fc2 were blocked by 35 μl blocking solution. Binding of Trk B to the immobilized HBP or the Ig module II of NCAM was studied as follows: Trk B was injected simultaneously into Fc1 (with the immobilized HBP or Ig module II of NCAM) and Fc2 (with nothing immobilized). The curve representing unspecific binding of the compound to the surface of Fc2 was subtracted from the curve representing binding of Trk B to the immobilized protein (HBP or the Ig 2 module of NCAM) and the surface of Fc1. […]

T1 sequence (Q16620 32-822): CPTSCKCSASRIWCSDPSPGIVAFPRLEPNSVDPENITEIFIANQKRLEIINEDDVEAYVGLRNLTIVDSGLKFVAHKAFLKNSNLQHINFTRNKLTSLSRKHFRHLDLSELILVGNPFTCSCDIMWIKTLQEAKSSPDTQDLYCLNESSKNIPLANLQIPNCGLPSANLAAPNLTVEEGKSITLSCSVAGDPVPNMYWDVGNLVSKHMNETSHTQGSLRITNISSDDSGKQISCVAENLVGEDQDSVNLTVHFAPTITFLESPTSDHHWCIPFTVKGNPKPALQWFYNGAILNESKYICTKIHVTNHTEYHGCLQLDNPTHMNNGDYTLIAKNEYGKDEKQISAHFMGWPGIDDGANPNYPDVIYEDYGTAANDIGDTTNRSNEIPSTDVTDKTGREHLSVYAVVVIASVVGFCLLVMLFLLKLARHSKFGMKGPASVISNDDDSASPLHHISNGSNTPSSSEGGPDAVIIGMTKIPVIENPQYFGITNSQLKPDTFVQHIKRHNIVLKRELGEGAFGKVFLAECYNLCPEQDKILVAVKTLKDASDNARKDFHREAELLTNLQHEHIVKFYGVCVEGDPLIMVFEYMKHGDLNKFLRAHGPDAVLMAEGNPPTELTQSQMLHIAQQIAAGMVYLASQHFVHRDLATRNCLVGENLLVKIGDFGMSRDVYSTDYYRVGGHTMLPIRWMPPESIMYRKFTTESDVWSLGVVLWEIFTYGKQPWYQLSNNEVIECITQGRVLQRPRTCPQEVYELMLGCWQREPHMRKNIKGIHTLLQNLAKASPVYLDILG

Row | Molecule | cell motility: rate of diffusion (R), mean cell speed (Sτ), locomotive index (LI) [1] | change of the neurite outgrowth effect by treatment with heparinase III ([2]; heparinase III 1 U/ml) | maximal effect on neurite outgrowth [2] | neurite outgrowth of CGNs grown on fibroblasts without NCAM expression [3] | neurite outgrowth of CGNs grown on fibroblasts expressing NCAM [3] | neuritogenic effect on CGNs grown on control fibroblasts under treatment with SU5402 (FGFR inhibitor) ([3]; control fibroblasts without NCAM expression, plus SU5402 (FIG. 2)) | effect on NCAM mediated neurite outgrowth in co-cultures of CGNs with NCAM expressing fibroblasts, in the presence of HBP ([3]; NCAM expressing fibroblasts, HBP present (FIG. 2)) | effect on NCAM mediated neurite outgrowth in the absence of HBP ([3]; NCAM expressing fibroblasts, no HBP (FIG. 2)) | Kd [4]
1 | CC[C@H](C)[C@H](NC(=O)[C@H](Cc1ccccc1)NC(=O)[C@H](CCCNC(=N)N)NC(=O)[C@@H](NC(=O)[C@H](CC(=O)O)NC(=O)[C@H](CCCCN)NC(=O)[C@H](CCCCN)NC(=O)[C@H](CC(C)C)NC(=O)[C@@H](NC(=O)[C@@H](NC(=O)[C@H](CC(=O)O)NC(=O)[C@H](CCCNC(=N)N)NC(=O)CNC(=O)[C@@H](N)CCCCN)C(C)C)[C@@H](C)CC)C(C)C)C(N)=O [HBP, KGRDVILKKDVRFI] (H-KGRDVILKKDVRFI-NH2; N-terminus and C-terminus assumed) | clear inhibition of cell motility | reduced the effect of HBP | 680% | in a dose-dependent manner increases neurite outgrowth | in a dose-dependent manner increases neurite outgrowth | is not blocked by treatment with SU5402 | – | – | –
2 | Cc1c[nH]c(/C=C2\C(=O)Nc3ccccc32)c1CCC(=O)O [SU5402, reference compound] | – | – | – | – | – | – | only partially inhibited | blocks NCAM mediated neurite outgrowth | –
3 | KGRDVILAKDVRVI (HBP mutant (peptide M)) [HBP mutant, Lys-161 and Phe-166 substituted for Ala and Val] | inhibitory effect on the motile behaviour of fibroblasts similar to the effect of HBP | – | 400% | still stimulates neurite outgrowth | does not affect the neurite outgrowth response | – | – | – | –
4 | B1 | – | – | – | – | – | – | – | – | 1 to 10 nM
